Data from patent publication US20150250864A1, “ANTI-CANCER VACCINES” (Board of Regents, The University of Texas System, priority 2012, published 2015).

Key:
IVS cells = assay: IFN-γ ELISPOT with IVS cells (DC pulsed once with HERV-K protein) against MAPs, 9-mer pools or single peptides; format: cell-based, human; conditions: donor 449731, IVS cells, FIG. 15C
Text: FIGS. 15A-C. ELISPOT was employed to determine the production of IFN-γ in twelve 15-mer small pools. (FIG. 15A) Numbers of spots detected in multiple pools are shown for a breast cancer patient diagnosed with IDC (Acc 30) or a patient diagnosed with teratoma (Acc 32). (FIG. 15B) Numbers of spots detected in multiple pools are shown for a patient diagnosed with left breast minute foci of sugg papillary lesion (967092) or IDC (Acc 31). SP 1-12 represents small peptide pools #1-12. Pool 0 contains no peptides (as control). (FIG. 15C) T cells obtained from PBMC stimulated once with HERV-K-specific pulsed homologous B cells were reactive with individual MAPs, pools of 9-mer peptides, or single 9-mer peptides. NP: no peptide control.
IVS were obtained from two donor pairs stimulated with DC pulsed once with HERV-K protein. After 7 days (1-week stimulation), IVS cells were used for ELISPOT with 15-mer peptides (FIGS. 15A-B) or MAPs including MAP73, MAP75-76, MAP82-93, MAP 92-93, and MAP95-96 or 9 mer peptide pools (#1 to 5, #5 to 10, #1 to 10, #12 to 17, #18 to 22) or single peptides (#3, #18, and #4.11; FIG. 15C). Candidate epitopes (#4 and #11) were further identified using IVS generated from DC obtained from cancer patients stimulated with HERV-K antigen in this study.

T cells in PBMCs = assay: IFN-γ release by ELISA from PBMC stimulated with peptides or protein; format: cell-based, human; conditions: stimulated PBMC, FIG. 21A
Text: FIG. 17. T cell stimulation by HERV-K peptides. Peptides (p73-76 and p18-135) or HERV-K SU fusion proteins were used to stimulate PBMC and evaluated in vitro for their ability to stimulate T cells in PBMCs from healthy subjects (ND1007083; left) and/or cancer patients (BC 243; right), based on interferon-γ(IFN-γ) release by ELISA. KLH peptide and GST protein were used as controls. Other negative controls included media only, DMSO, and PBS.
FIG. 18. T cell stimulation by HERV-K peptides. Peptides (p73-76: left; and p18-135: middle) or HERV-K SU fusion proteins (right) were used to stimulate PBMC and evaluated in vitro for their ability to stimulate T cells in PBMCs from healthy subjects and/or cancer patients (BC 243; middle), based on interferon-γ (IFN-γ) release by ELISA. OD values of interferon-γ (IFN-γ) release were compared between normal donors (ND447549, ND1001366, and ND1007083) and cancer patients (OC222, OC 210, OC212, and BC243). OC is ovarian cancer and BC is breast cancer
FIGS. 21A-C. T Cell Stimulation. 9 mer Peptides (HERVK-3, HERVK-4, HERVK-11, and HERVK-18; see Table 1), p73-76 and p18-135 (Table 1 178 and 179), or HERV-K SU fusion proteins were used to stimulate PBMC and evaluated in vitro for their ability to stimulate T cells in PBMCs from healthy subjects and/or cancer patients, based on IFN-γ and Granzyme B release by ELISA. (FIG. 21A) OD values of IFN-γ release were compared in a normal donor (ND291812). (FIG. 21B) OD values of IFN-γ release were compared between a normal donor (ND291817) and an ovarian cancer patient (OC153). (FIG. 21C) OD values of Granzyme B release were compared between a normal donor (ND291817) and an ovarian cancer patient (OC153). Each dot represents an individual clone. Negative controls measured release of effector molecules from cancer cells after treatment with supernatants obtained from PBMCs without stimulation with HERV-K peptides or protein; positive controls were stimulated with PMA/ONO.
Cancer patients were enrolled to evaluate HERV-K as a tumor associated antigen target. Patients provided written informed consent as part of an approved protocol (LAB04-0083) at MD Anderson Cancer Center prior to commencing the studies. Normal healthy donor control blood samples were obtained from Gulf Coast Regional Blood Center, Houston Tex. 40 mL of peripheral blood was obtained from each patient, and peripheral blood mononuclear cells (PBMCs) were isolated by density gradient centrifugation using Histopaque-1077 (Sigma-Aldrich; USA). HLA-A*02 expression in PBMCs obtained from cancer patients and healthy subjects was determined by flow cytometry with PE Mouse anti-human HLA-A2 mAb BB7.2 (BD Pharmingen; San Diego, Calif., USA). Mouse IgG2b was used as an isotype control. PBMCs (5×10^5 cells/well) from either healthy subjects or cancer patients were incubated with Peptide #18-135 ([…]; SEQ ID NO: 178), Peptide #73-76 ([…]; SEQ ID NO: 179) or KLH as control peptide) or proteins (HERV-K env SU protein or GST protein as control) at concentrations of 40 μg/mL in 96-well U-bottom microplates (BD; Franklin Lakes, N.J., USA) in 100 μL of T-cell medium (TCM), consisting of RPMI 1640 (Mediatech; Manassas, Va., USA), 10% human AB serum (Valley Biomedical, Winchester, USA), […] 2-mercaptoethanol, 100 IU/mL interleukin-2 (IL-2), and 0.1 mM MEM nonessential amino acid solution (Invitrogen; Grand Island, N.Y., USA). Half of the TCM was removed and replaced with fresh TCM containing peptides (20 μg/mL) on day 7. After 14 days of culture, the supernatants from cell culture media (PBMC pulsed with peptides or proteins) were harvested and tested for their ability to produce IFN-gamma or IL-2, and granzyme B release was also determined by enzyme-linked immunosorbent assay (ELISA) assay. In order to detect the secreted cytokine in this assay, high-binding plates were coated with 5 μg/ml anti-IFN-γ (Mabtech, Stockholm, Sweden) diluted in PBS buffer at 4° C. overnight. […]

YMLVVGNIV [HERVK-3] was tested, and the “HERV-K specific T cell epitope (IFN-γ ELISPOT)” value (IVS cells) was “HERV-K specific T cell epitopes” and the “IFN-γ release (OD values)” value (T cells in PBMCs) was “Higher IFN-γ release”.

With IINLILILV [HERVK-18] the “HERV-K specific T cell epitope (IFN-γ ELISPOT)” value (IVS cells) was “HERV-K specific T cell epitopes” and the “IFN-γ release (OD values)” value (T cells in PBMCs) was “Higher IFN-γ release”.
